Measured values reported in ChEMBL document CHEMBL1201862, “PubChem BioAssay data set” (2004).
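Results reflect a 48-hour exposure of cells in 96-well plates to compound at five concentrations. Abbreviation: GI50, concentration required for 50% inhibition of growth.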 The source made the active and inactive calls. Rule as the data show it: active = GI50 up to about 1.1 µM and inactive = higher.

How the values were obtained:
Experiment in all cases: inhibition of tumour cell growth, NCI panel, 48 h
A498 = test system: A498
A549 = test system: A549
BT-549 = test system: BT-549
CCRF-CEM = test system: CCRF-CEM
DU-145 = test system: DU-145
HL-60 = test system: HL-60
HOP-62 = test system: HOP-62
IGROV-1 = test system: IGROV-1
K562 = test system: K562
NCI-H226 = test system: NCI-H226
NCI-H23 = test system: NCI-H23
NCI-H522 = test system: NCI-H522
PC-3 = test system: PC-3
RPMI-8226 = test system: RPMI-8226
SF-268 = test system: SF-268
SF-295 = test system: SF-295
SK-MEL-28 = test system: SK-MEL-28
SW-620 = test system: SW-620
T47D = test system: T47D
TK-10 = test system: TK-10

| Structure (SMILES) | GI50 (A498) | GI50 (A549) | GI50 (BT-549) | GI50 (CCRF-CEM) | GI50 (DU-145) | GI50 (HL-60) | GI50 (HOP-62) | GI50 (IGROV-1) | GI50 (K562) | GI50 (NCI-H226) | GI50 (NCI-H23) | GI50 (NCI-H522) | GI50 (PC-3) | GI50 (RPMI-8226) | GI50 (SF-268) | GI50 (SF-295) | GI50 (SK-MEL-28) | GI50 (SW-620) | GI50 (T47D) | GI50 (TK-10) |
| --- | --- | --- | --- | --- | --- | --- | --- | --- | --- | --- | --- | --- | --- | --- | --- | --- | --- | --- | --- | --- |
| O=C1/C(=C/c2ccc(O)c(O)c2)CCC/C1=C\c1ccc(O)c(O)c1 | 7.64 µM (inactive) | 7.41 µM (inactive) | 4.74 µM (inactive) | 1.52 µM (inactive) | 4.5 µM (inactive) | 3.24 µM (inactive) | 4.13 µM (inactive) | 4.05 µM (inactive) | 3.71 µM (inactive) | 5.6 µM (inactive) | 2.76 µM (inactive) | 0.729 µM (active) | 3.98 µM (inactive) | 2.48 µM (inactive) | 3.02 µM (inactive) | 8.07 µM (inactive) | 3.94 µM (inactive) | 2.45 µM (inactive) | 3.87 µM (inactive) | 3.79 µM (inactive) |
| Cc1ccc(/N=N/c2c(O)c3ccccc3[nH]c2=O)c(S(=O)(=O)N(C)C)c1 | > 100 µM (inactive) | > 100 µM (inactive) | > 100 µM (inactive) | > 100 µM (inactive) | > 100 µM (inactive) | > 100 µM (inactive) | > 100 µM (inactive) | > 100 µM (inactive) | > 100 µM (inactive) | > 100 µM (inactive) | > 100 µM (inactive) | > 100 µM (inactive) | > 100 µM (inactive) | > 100 µM (inactive) | > 100 µM (inactive) | > 100 µM (inactive) | > 100 µM (inactive) | > 100 µM (inactive) | > 100 µM (inactive) | > 100 µM (inactive) |
| CN1CCC/C1=C1\C(=O)c2cccn2C1=O | > 100 µM (inactive) | > 100 µM (inactive) | > 100 µM (inactive) | > 100 µM (inactive) | > 100 µM (inactive) | > 100 µM (inactive) | > 100 µM (inactive) | > 100 µM (inactive) | > 100 µM (inactive) | > 100 µM (inactive) | > 100 µM (inactive) | > 100 µM (inactive) | > 100 µM (inactive) | > 100 µM (inactive) | > 100 µM (inactive) | > 100 µM (inactive) | > 100 µM (inactive) | > 100 µM (inactive) | > 100 µM (inactive) | > 100 µM (inactive) |
| C=CCn1c(=O)c(C)cn(/C(=C/C(=O)OCC)C(=O)OCC)c1=O | 22.1 µM (inactive) | 30 µM (inactive) | 16.2 µM (inactive) | 1.42 µM (inactive) | 40.7 µM (inactive) | 2.19 µM (inactive) | 51.1 µM (inactive) | 16.4 µM (inactive) | 4.19 µM (inactive) | 31.6 µM (inactive) | 16.1 µM (inactive) | 1.69 µM (inactive) | 14.8 µM (inactive) | 14.6 µM (inactive) | 18.9 µM (inactive) | > 84.1 µM (inactive) | 15.9 µM (inactive) | 3.85 µM (inactive) | 11.9 µM (inactive) | 15.4 µM (inactive) |
| C=C1C(=O)C2=C[C@H]1C[C@H](O)C(=O)[C@]1(C)CCCC(C)(C)[C@H]1C[C@H]2O | 1.86 µM (inactive) | 0.665 µM (active) | 2.16 µM (inactive) | 0.0488 µM (active) | 1.77 µM (inactive) | 0.237 µM (active) | 12.9 µM (inactive) | 3.6 µM (inactive) | 0.215 µM (active) | 10.5 µM (inactive) | 1.63 µM (inactive) | 0.0428 µM (active) | 1.92 µM (inactive) | 0.235 µM (active) | 4.38 µM (inactive) | 7.94 µM (inactive) | 1.73 µM (inactive) | 0.583 µM (active) | 1.11 µM (active) | 0.787 µM (active) |
| CC[C@H](C)C1=C(O)[N@+]2([O-])Oc3ccc(-c4c(O)c(O)c(-c5ccc(O)cc5)c(OC(C)=O)c4OC(C)=O)cc3O[C@]2([C@@H](C)CC)C(=O)N1O | 13.9 µM (inactive) | 16.7 µM (inactive) | 25.6 µM (inactive) |  | 33.3 µM (inactive) | 17.7 µM (inactive) | 30.1 µM (inactive) | 6.4 µM (inactive) | 21.4 µM (inactive) |  | 47.3 µM (inactive) | 7.85 µM (inactive) | 22.2 µM (inactive) | 10.6 µM (inactive) | 27.5 µM (inactive) | 24.8 µM (inactive) | 46.8 µM (inactive) | 15.7 µM (inactive) | > 50 µM (inactive) | 24.3 µM (inactive) |
| COc1cccc(C2c3cc4c(cc3OC(NNc3ccccc3)C2C)OCO4)c1O (stereo not drawn) | 14 µM (inactive) | 3.65 µM (inactive) | 7.18 µM (inactive) | 4.68 µM (inactive) | 5.13 µM (inactive) | 4.48 µM (inactive) | 2.51 µM (inactive) | 5.47 µM (inactive) | 2.24 µM (inactive) | 14.5 µM (inactive) | 10.1 µM (inactive) | 2.36 µM (inactive) | 4.76 µM (inactive) | 4.18 µM (inactive) | 12.2 µM (inactive) | 2.06 µM (inactive) | 8.77 µM (inactive) | 11 µM (inactive) | 6.15 µM (inactive) | 3.62 µM (inactive) |
| Cc1ccc(C(C)C)c(OCC(=O)N/N=C/c2c[nH]c3ccc(Br)cc23)c1 | 4.09 µM (inactive) | 3.1 µM (inactive) | 4.99 µM (inactive) | 2.11 µM (inactive) | 2.56 µM (inactive) | 2.37 µM (inactive) | 5.79 µM (inactive) | 2 µM (inactive) | 2.38 µM (inactive) |  | 0.451 µM (active) | 1.43 µM (inactive) | 0.625 µM (active) | 2.47 µM (inactive) | 7.85 µM (inactive) | 2.45 µM (inactive) | 8.93 µM (inactive) | 3.61 µM (inactive) | 5.62 µM (inactive) | 2.4 µM (inactive) |
| CC(=O)OC1OC(c2ccoc2)C[C@@]12C1CCC3O[C@]3(C)[C@]1(C)C[C@H](OC(C)=O)[C@H]2C (stereo partly drawn) | > 75 µM (inactive) | > 75 µM (inactive) | > 75 µM (inactive) | 38.1 µM (inactive) | > 75 µM (inactive) | 42.9 µM (inactive) |  | > 75 µM (inactive) | > 75 µM (inactive) | > 75 µM (inactive) | 74.1 µM (inactive) | > 75 µM (inactive) | 44.7 µM (inactive) | 44 µM (inactive) | > 75 µM (inactive) | > 75 µM (inactive) | > 75 µM (inactive) | > 75 µM (inactive) | 35.2 µM (inactive) | > 75 µM (inactive) |
| CCOC(=O)c1cc2c3c(c(C(C)=O)c(O)c2[nH]1)N(CC(C)CC)CC3 (stereo not drawn) | 80.9 µM (inactive) | 62.8 µM (inactive) | 45.5 µM (inactive) | 35.6 µM (inactive) | > 100 µM (inactive) | 28.8 µM (inactive) |  | > 100 µM (inactive) | 32.5 µM (inactive) | 41.5 µM (inactive) | 44.9 µM (inactive) | 24.2 µM (inactive) | 66.8 µM (inactive) | 36.1 µM (inactive) | 35 µM (inactive) | 45 µM (inactive) | > 100 µM (inactive) | > 100 µM (inactive) | 21.9 µM (inactive) | > 100 µM (inactive) |
| CCC(=O)Nc1ccc(N2C(=O)/C(=C/c3ccc(O)c(OC)c3)N=C2c2ccccc2)cc1 | 15.8 µM (inactive) | 21.3 µM (inactive) | 20.4 µM (inactive) | 22.1 µM (inactive) | 28.7 µM (inactive) | 24 µM (inactive) | 46.6 µM (inactive) | 31.1 µM (inactive) | 18.5 µM (inactive) | 19.5 µM (inactive) | 43.8 µM (inactive) | 37.6 µM (inactive) | 16.5 µM (inactive) | 6.82 µM (inactive) | 27 µM (inactive) | 19.9 µM (inactive) | 25.6 µM (inactive) | 51.2 µM (inactive) | 24 µM (inactive) |  |
| COc1ccc(-c2c(C#N)c(=O)nc(SC)n2C2OCC(OC(C)=O)C(OC(C)=O)C2OC(C)=O)cc1 (stereo not drawn) | 62.1 µM (inactive) | 82.4 µM (inactive) | 68.2 µM (inactive) | 29 µM (inactive) | > 100 µM (inactive) | 22.2 µM (inactive) | > 100 µM (inactive) | > 100 µM (inactive) | 18.1 µM (inactive) | > 100 µM (inactive) | > 100 µM (inactive) | 74 µM (inactive) | 47.3 µM (inactive) | 37.7 µM (inactive) | 55 µM (inactive) | > 100 µM (inactive) | > 100 µM (inactive) | 64.3 µM (inactive) | 63.4 µM (inactive) | > 100 µM (inactive) |
| NC(=S)N1N=C(c2ccc3c(c2)CCC3)CC1c1ccccc1 (stereo not drawn) | 12.5 µM (inactive) | 23.4 µM (inactive) | 22.5 µM (inactive) | 23.1 µM (inactive) | 23 µM (inactive) | 7.93 µM (inactive) | 24.9 µM (inactive) | 15 µM (inactive) | 13.1 µM (inactive) | 34.2 µM (inactive) | 25.1 µM (inactive) | 6.27 µM (inactive) | 19.6 µM (inactive) | 13.6 µM (inactive) | 30.8 µM (inactive) | 15.7 µM (inactive) | 41.5 µM (inactive) | 33.8 µM (inactive) | 1.64 µM (inactive) | 18.1 µM (inactive) |
| C=CCn1c(N)c(C#N)c(C#N)c1CCC | > 100 µM (inactive) | > 100 µM (inactive) | > 100 µM (inactive) | > 100 µM (inactive) | > 100 µM (inactive) | > 100 µM (inactive) | > 100 µM (inactive) | > 100 µM (inactive) | > 100 µM (inactive) | > 100 µM (inactive) | > 100 µM (inactive) | > 100 µM (inactive) | > 100 µM (inactive) | > 100 µM (inactive) | > 100 µM (inactive) | > 100 µM (inactive) |  | > 100 µM (inactive) | > 100 µM (inactive) | > 100 µM (inactive) |
